Experiments:
[1] = target: GTPase KRas (Homo sapiens, UniProt P01116); experiment: The purpose of this biochemical assay is to measure the ability of test compounds to covalently label nucleotide-loaded K-Ras isoforms. […] Analysis of raw data may be carried out using Waters MassLynx MS software, with % bound calculated from the deconvoluted protein peaks for labeled and unlabeled K-Ras.
[2] = (§1) Biochemical Assay: A variety of Ras proteins may be inhibited by compounds of the present invention (e.g., K-Ras, N-Ras, H-Ras, and mutants thereof at positions 12, 13 and 61, such as G12C, G12D, G12V, G12S, G13C, G13D, and Q61L, and others described herein). The purpose of this biochemical assay is to measure the ability of test compounds to covalently label nucleotide-loaded K-Ras isoforms. […] The sample is incubated at 25? C. for a time period of up to 24 hours prior to quenching by the addition of 10 uL of 5% Formic Acid. Quenched samples are centrifuged at 15000 rpm for 15 minutes in a benchtop centrifuge before injecting a 10 uL aliquot onto a reverse phase C4 column and eluting into the mass spectrometer with an increasing acetonitrile gradient in the mobile phase. Analysis of raw data may be carried out using Waters MassLynx MS software, with % bound calculated from the deconvoluted protein peaks for labeled and unlabeled K-Ras.
[3] = as §1; remark: listed apart in the source
[4] = as §1; remark: listed apart in the source
[5] = as §1; remark: listed apart in the source
[6] = as §1; remark: listed apart in the source
[7] = as §1; remark: listed apart in the source
[8] = as §1; remark: listed apart in the source

IC50 [1]	IC50 [2]	IC50 [3]	IC50 [4]	IC50 [5]	IC50 [6]	IC50 [7]	IC50 [8]	Compound
	> 10 µM	> 10 µM	> 10 µM	> 10 µM	> 10 µM	in the range around 0.055 µM	> 10 µM	CCn1c(-c2cccnc2C(C)OC)c2c3cc(ccc31)N1CCC[C@@H](C[C@H](NC(=O)[C@H](C(C)C)N(C)C(=O)[C@H]3CCN(C(=O)C#CC(C)(C)N4CCC4)C3)C(=O)N3CCC[C@H](N3)C(=O)OCC(C)(C)C2)C1 (some centres undefined)
	in the range around 5.5 µM	in the range around 5.5 µM	in the range around 5.5 µM	> 10 µM	in the range around 5.5 µM	in the range around 0.55 µM	> 10 µM	C=CC(=O)N1CC(OC[C@H](C(=O)N[C@H]2C[C@H]3CN(CCO3)c3ccc4c(c3)c(c(-c3cccnc3C(C)OC)n4CC(F)(F)F)CC(C)(C)COC(=O)[C@@H]3CCCN(N3)C2=O)C(C)C)C1 (some centres undefined)
	in the range around 5.5 µM	in the range around 0.55 µM	in the range around 5.5 µM	in the range around 5.5 µM	in the range around 5.5 µM	in the range around 0.055 µM	> 10 µM	CCn1c(-c2cccnc2C(C)OC)c2c3cc(ccc31)N1CCO[C@@H](C[C@H](NC(=O)[C@H](C(C)C)N(C)C(=O)C3(F)CCN(C(=O)/C=C/CN(C)C)CC3)C(=O)N3CCC[C@H](N3)C(=O)OCC(C)(C)C2)C1 (some centres undefined)
	in the range around 5.5 µM	in the range around 0.55 µM	in the range around 5.5 µM	in the range around 5.5 µM	in the range around 5.5 µM	in the range around 0.055 µM	in the range around 5.5 µM	C=CC(=O)N1CCC(F)(C(=O)N(C)[C@H](C(=O)N[C@H]2C[C@H]3CN(CCO3)c3ccc4c(c3)c(c(-c3cccnc3C(C)OC)n4CC)CC(C)(C)COC(=O)[C@@H]3CCCN(N3)C2=O)C(C)C)CC1 (some centres undefined)
	> 10 µM	in the range around 5.5 µM	> 10 µM	> 10 µM	> 10 µM	< 0.01 µM	> 10 µM	CCn1c(-c2cccnc2C(C)OC)c2c3cc(ccc31)N1CCO[C@@H](C[C@H](NC(=O)[C@@H](COC3CN(C(=O)C#CC(C)(C)N(C)C)C3)C(C)C)C(=O)N3CCC[C@H](N3)C(=O)OCC(C)(C)C2)C1 (some centres undefined)
	in the range around 5.5 µM	in the range around 0.55 µM	in the range around 5.5 µM	in the range around 5.5 µM	in the range around 5.5 µM	< 0.01 µM	in the range around 5.5 µM	CCn1c(-c2cccnc2C(C)OC)c2c3cc(ccc31)N1CCO[C@@H](C[C@H](NC(=O)[C@H](C(C)C)N(C)C(=O)C3(F)CCN(C(=O)C#CC(C)(C)N(C)C)CC3)C(=O)N3CCC[C@H](N3)C(=O)OCC(C)(C)C2)C1 (some centres undefined)
	in the range around 5.5 µM	in the range around 5.5 µM	in the range around 5.5 µM	> 10 µM	> 10 µM	in the range around 0.55 µM	> 10 µM	C=CC(=O)N1CC[C@H](C(=O)N(C)C(C(=O)N[C@H]2C[C@H]3CN(CCO3)c3ccc4c(c3)c(c(-c3cccnc3C(C)OC)n4CC)CC(C)(C)COC(=O)[C@@H]3CCCN(N3)C2=O)C(C)C)C1 (some centres undefined)

Continued, compound first:

Compound	IC50 [1]	IC50 [2]	IC50 [3]	IC50 [4]	IC50 [5]	IC50 [6]	IC50 [7]	IC50 [8]
C=CC(=O)N1CC[C@H](C(=O)N(C)[C@H](C(=O)N[C@H]2Cc3cc(O)cc(c3)-c3ccc4c(c3)c(c(-c3ccc(CN(C)C)cc3COC)n4CC)CC(C)(C)COC(=O)[C@@H]3CCCN(N3)C2=O)C(C)C)C1	in the range around 0.055 µM							
C=CC(=O)N1CC[C@H](C(=O)N(C)[C@H](C(=O)N[C@H]2Cc3cc(O)cc(c3)-c3ccc4c(c3)c(c(-c3cccnc3COC)n4CC#N)CC(C)(C)COC(=O)[C@@H]3CCCN(N3)C2=O)C(C)C)C1	in the range around 0.055 µM							
CCn1c(-c2ccccc2COC)c2c3cc(ccc31)-c1cc(O)cc(c1)C[C@H](NC(=O)[C@H](C(C)C)N(C)C(=O)[C@H]1CCN(C(=O)/C=C/CN(C)C)C1)C(=O)N1CCC[C@H](N1)C(=O)OCC(C)(C)C2	in the range around 0.055 µM							
C=CC(=O)N1CCO[C@H]2CN(C(=O)N(C)[C@H](C(=O)N[C@H]3Cc4cc(C(F)F)cc(n4)-c4ccc5c(c4)c(c(-c4cccnc4C(C)OC)n5CC(F)(F)F)CC(C)(C)COC(=O)[C@@H]4CCCN(N4)C3=O)C(C)C)C[C@H]21 (some centres undefined)		in the range around 5.5 µM	in the range around 0.055 µM	in the range around 5.5 µM	in the range around 5.5 µM	in the range around 0.55 µM	in the range around 0.55 µM	in the range around 5.5 µM
C=CC(=O)N1CC(OC[C@H](C(=O)N[C@H]2Cc3cc(F)cc(c3)-c3ccc4c(c3)c(c(-c3cccnc3C(C)OC)n4CC(F)(F)F)CC(C)(C)COC(=O)[C@@H]3CCCN(N3)C2=O)C(C)C)C1 (some centres undefined)		in the range around 5.5 µM	in the range around 0.55 µM	in the range around 5.5 µM	in the range around 5.5 µM	in the range around 0.55 µM	in the range around 0.55 µM	in the range around 5.5 µM
C=CC(=O)Nc1cnc(OC[C@H](C(=O)N[C@H]2Cc3cccc(c3)-c3ccc4c(c3)c(c(-c3cccnc3C(C)OC)n4CC)CC(C)(C)COC(=O)[C@@H]3CCCN(N3)C2=O)C(C)C)n1C (some centres undefined)		in the range around 5.5 µM	in the range around 0.055 µM	in the range around 5.5 µM	in the range around 5.5 µM	in the range around 0.55 µM	< 0.01 µM	in the range around 5.5 µM
C=CC(=O)N1CC(OC[C@H](C(=O)N[C@H]2Cc3cccc(c3)-c3ccc4c(c3)c(c(-c3cccnc3C(C)OC)n4CC(F)(F)F)CC(C)(C)COC(=O)[C@@H]3CCCN(N3)C2=O)C(C)C)C1 (some centres undefined)		in the range around 5.5 µM	in the range around 0.55 µM	in the range around 5.5 µM	in the range around 5.5 µM	in the range around 0.55 µM	in the range around 0.055 µM	in the range around 5.5 µM
C=CC(=O)N1CCOC2(CCN(C(=O)N(C)[C@H](C(=O)N[C@H]3Cc4cc(CF)cc(c4)-c4ccc5c(c4)c(c(-c4cccnc4C(C)OC)n5CC(F)(F)F)CC(C)(C)COC(=O)[C@@H]4CCCN(N4)C3=O)C(C)C)CC2)C1 (some centres undefined)		in the range around 0.55 µM	in the range around 0.055 µM	in the range around 0.55 µM	in the range around 0.55 µM	in the range around 0.055 µM	in the range around 0.55 µM	in the range around 0.55 µM
CCn1c(-c2cccnc2C(C)OC)c2c3cc(ccc31)-c1csc(n1)C[C@H](NC(=O)CCOC1CN(C(=O)C#CC(C)(C)N(C)C)C1)C(=O)N1CCC[C@H](N1)C(=O)OCC(C)(C)C2 (some centres undefined)		in the range around 5.5 µM	in the range around 5.5 µM	in the range around 5.5 µM	in the range around 5.5 µM	in the range around 5.5 µM	< 0.01 µM	> 10 µM and in the range around 5.5 µM

From ChEMBL document CHEMBL5729568, “Ras inhibitors” (2023)
